Patent publication US5652234A, “3-(7-oxo-1-aza-4-oxabicyclo[3.2.0]hept-3-yl)alanine derivative as antitumor agent” (Taiho Pharmaceutical Co., Limited, priority 1994, dated 1997)

Experiments:
[1] = test system: KB cells; test: cells; format: cell-based; settings: Homo sapiens, 72 h, read-out: Cytotoxicity TD50 KB
Description: In vitro KB cell cytoxocity assay was done by modification of the crystal violet assay (Grillis et al., Anal Biochem., 159, 109-113 (1986).
KB cells were cultivated in Eagles minimum essential medium supplemented with 10% calf serum and incubated at 37° C. in a humidified 5% CO2 atmosphere to prepare a cell stock. Cells were counted using a neubauer hemocytometer and seeded in 96 well plates at 100 μl of 3×10^4 cells/ml and cultured for one day. Test compounds were diluted and 100 .parallel.l of the solution was added in triplicate wells to give final concentration of 10, 5, 1, 0.5, 0.1, 0.05 and 0.01 μg/ml. Control wells were identical except that test compound was absent. These were cultured for three days. Then the cells were fixed with addition of 20 μl of 25% glutaraldehyde for 15 minutes, washed with water and dried. Then stained with 100 μl of 0.05% crystal violet for 15minutes, washed with water and dried. The wells are eluted with 100 μl of 0.05M NaH2 PO4 /ethanol (1:1 v/v) and read at OD540 on a multiscan spectrophotometer. Inhibition value of cell Growth was calculated based on optical density using the following equation; [formula] TD50 values were calculated from linear recression ines of the log-logit plot.

[2] = test system: L1210 cells; test: cells; format: cell-based; settings: Mus musculus, L1210, 72 h, read-out: Cytotoxicity TD50 L-1210
Description: Vitro L1210 Cell Cytoxocity Assay
In vitro :L1210 cell cytotoxicity assay was done by the method of microculture tetrazolium assay (Alley et al., Cancer Research, 48, 589-601 (1988).
L1210 cells were cultivated in RPMI 1640 medium supplemented with 10% fetal calf serum and […] of 2-mercaptoethanol at 37° C. in humidified 5% CO2 atmosphere no prepare a cell stock. Cells were counted using neubauer hemocytometer and seed in 96 well plates at 100 μl of 0.5×10^4 cells per ml. The test compounds were diluted and 100 μl of the solution was added in triplicate wells to give the final concentration of 10, 5, 1, 0.5, 0.1, 0.05 and 0.01 μg/ml. Control wells were identical except :hat the test compound was absent. These were cultured for three days. Results were assayed using the microculture tetrazolium assay briefly. 50 μl of MTT formazoan working solution (1:5 v/v in culture medium) was added to each well and cultures were incubated at 37° C. for 4 hrs. Culture plates were centrifuged at low speed for 5 minutes. All but 10-20 μl of culture medium supernatant was removed by slow aspiration and […] and read at OD540 on a multiscan spectrophotometer. Inhibition value of cell growth was calculated based on optical density using the following equation; [formula] TD50 values were calculated from linear depression ines of the log-logit plot.

[3] = test system: Sarcoma 180; test: In Vivo Antitumor Activity Against Sarcoma 180; set-up: species or system male ICR mice; settings: s.c. - i.p., days 1, 5 and 9, tumor weight on day 12
Description: The compounds of general formula (I) were tested in vivo against Sarcoma 180 xenografted tumor to mice as illustrated herein after.
Sarcoma 180, 5×10^6 cells were inoculated by S.C. to male ICR mice (6 weeks old) on day 0. Drugs were administered on days 1,5 and 9. Mice were killed and tumor weight was measured on day 12 after transplantation. The percentage inhibition of tumor growth was calculated from the mean tumor weight of the treated group compared with that of the control group. Number of mice used in each group was between 6 to 10.

[4] = test system: β-lactamase; settings: natural metabolites isolated from Streptomyces culture; cited from earlier work
[5] = isolation to be done in the dark at low temperatures; cited from earlier work

| Compound | IC50 [1] [µg/mL] | IC50 [2] [µg/mL] | % Inhibition in 12 days (tumor growth, tumor weight) ([3]; 1.56 mg/kg/day) [%] | % Inhibition in 12 days (tumor growth, tumor weight) ([3]; 3.13 mg/kg/day) [%] | β-lactamase inhibitory properties [4] | chemical stability [5] |
| --- | --- | --- | --- | --- | --- | --- |
| O=C(N[C@@H](C[C@@H]1CN2C(=O)C[C@@H]2O1)C(=O)OC(c1ccccc1)c1ccccc1)OCc1ccccc1 (mixture of isomers) [10A, N-Benzyloxycarbonyl-3-[(3RS,5SR)-7-oxo-1-aza-4-oxabicyclo [3.2.0]hept-3-yl]-L-alanine diphenylmethyl ester] | 3.17 | 10 | – | – | – | – |
| O=C(N[C@H](C[C@@H]1CN2C(=O)C[C@@H]2O1)C(=O)OC(c1ccccc1)c1ccccc1)OCc1ccccc1 (mixture of isomers) [10B, N-(benzyloxycarbonyl)-3-[(3RS,5SR)-7-oxo-1-aza-4-oxabicyclo[3.2.0]hept-3-yl]-D-alanine diphenylmethyl ester] | 1.78 | 7.5 | – | – | – | – |
| N[C@@H](C[C@@H]1CN2C(=O)C[C@@H]2O1)C(=O)O (mixture of isomers) [compound 11, 3-[(3RS,5SR)-7-oxo-1-aza-4-oxabicyclo[3,2,0]hept-3-yl]-L-alanine] | 0.023 | 0.1 | 71.4 | 79.5 | – | – |
| N[C@H](C[C@@H]1CN2C(=O)C[C@@H]2O1)C(=O)O (mixture of isomers) [compound 12, 3-[(3RS,5SR)-7-oxo-1-aza-4-oxabicyclo[3.2.0]hept-3-yl]-D-alanine] | 0.098 | – | – | – | – | – |
| CC(C)C(N)C(=O)NC(C(=O)O)C(O)C1CN2C(=O)CC2O1 (centres unmarked) [G0069A] | – | – | – | – | None of the above metabolites exhibited β-lactamase inhibitory properties | chemicalyl unstable |
